Key:
Wheat (cultivar: Apogee) = assay: Test Example 6: reduction of high-temperature stress by spraying treatment of wheat; assay type: in vivo; conditions: 36° C./32° C. for 7 days, 90 days after stress
Description: Five wheat seeds were sown in the culture soil (AISAI) in each plastic pot and cultivated for 28 days in an artificial weather control room under the conditions of a temperature of 18° C. in daytime/15° C. in night, and an illuminance of 7,000 lux. Before the stress test, 3 individuals per pot were removed.
To 0.5 mg of the present compound 1 were added 120 mg of a mixture (weight ratio 1:1) of white carbon and ammonium polyoxyethylene alkyl ether sulfate and 300 μl of water. The mixture was finely ground by a wet grinding method to obtain a flowable formulation of the present compound 1. This flowable formulation was diluted with 50 ml or 500 ml of water. The mixture was diluted with RINO (manufactured by NIHON NOHYAKU CO., LTD) as a spreading agent to 5,000-fold dilution to obtain a spray solution containing 10 ppm or 1 ppm of the present compound 1. A sufficient amount of the spray solution was applied to the wheat seedlings by using an automatic spraying machine.
In addition, a flowable formulation without the present compound 1 was prepared and then sprayed. This is called as a non-treated group.
The tested plants at 28 days after the sowing were cultivated for 7 days in an artificial weather control room under the conditions of a temperature of 36° C. in daytime/32° C. in night, a humidity of 50% in daytime/60% in night, an illuminance of 7,000 lux, and a day length of 12 hours.
After the high-temperature stress treatment, the plants were cultivated for 4 days in an artificial weather control room under the conditions of a temperature of 18° C. in daytime/15° C. in night, and a illuminance of 7,000 lux. Then, 90 days after the high-temperature stress treatment, the number and the weight of seeds in ears of the tested plants in 7 or 8 pots were measured, and the average values of the number and the weight of seeds per one ear were calculated. As a result, the number and the weight of seeds in the wheat plants treated with the present compound 1 at a concentration of 1 ppm or 10 ppm were much larger those in the non-treated group, in which the wheat plants were not treated with the present compound 1.

[1] = system: Tobacco (Nicotiana benthamiana); assay: Test Example 4: reduction of low-temperature stress in hydroponics of tobacco; assay type: in vivo; conditions: 10 ppm in medium; 1.5±1.0° C. for 7 days, then 3 days at 22° C.
Description: Tobacco (Nicotiana benthamiana)
DMSO solutions containing each of the present compounds 1 to 4 at a concentration of 10,000 ppm were prepared. A 1/1,000 volume of each DMSO solution was added to a Murashige-and-Skoog medium (a medium containing 2.3 g of a mixture of salts for Murashige-and-Skoog medium (manufactured by Wako. Pure Chemical Industries, Ltd.), 200 mg of myoinositol (manufactured by Sigma-Aldrich), 2 mg of nicotinic acid (manufactured by Wako Pure Chemical Industries, Ltd.), 2 mg of pyridoxine hydrochloride (manufactured by Wako Pure Chemical Industries, Ltd.), 20 mg of thiamine hydrochloride (manufactured by Wako Pure Chemical Industries, Ltd.), 20 g of sucrose (manufactured by Wako Pure Chemical Industries, Ltd.), 1 g of MES (manufactured by DOJINDO LABORATORIES) in 1 L of water, adjusted to pH 5.8) at ½ concentration to obtain a medium containing the test compound at a concentration of 10 ppm. These media were used in the treated-group.
In a non-treated group, a medium obtained by adding a 1/1,000 volume of DMSO to a Murashige-and-Skoog medium at ½ concentration was used.
The seeds of tobacco (Nicotiana benthamiana) were sown on 5 μL of the medium, and incubated at 22° C. overnight. Thereto was added 45 μL of a medium containing each present compound at a concentration of 10 ppm, and cultivated for 7 days under the conditions of an illuminance of 4,000 lux, a temperature of 22° C. and a day length of 16 hours, thereby treating the seedlings of tobacco (Nicotiana benthamiana) with the test compound.
In the non-treated group, 45 μL of a medium obtained by adding a 1/1,000 volume of DMSO to a Murashige-and-Skoog medium at ½ concentration was added, and treated in the same manner as above.
The seedlings of tobacco (Nicotiana benthamiana) treated with the present compounds were cultivated for 7 days under the conditions of an illuminance of 2,000 lux, a temperature of 1.5±1.0° C., and a day length of 16 hours, thereby subjecting to low-temperature stress treatment.
The plants of tobacco (Nicotiana benthamiana) subjected to low-temperature stress treatment was cultivated for 3 days under the conditions of an illuminance of 4,000 lux, a temperature of 22° C., and a day length of 16 hours, and then the green leaf area of the plants was visually evaluated. Completely dead plant was scored as 0, the plant without low-temperature stress treatment was scored as 5, the green area was rated on a 6-point scale in ⅕ increments, and the score of not less than 1 was regarded as effective in reducing the stress. As a result of visual evaluation, the green leaf area of plants in the treated group, wherein the plants were treated with the present compound 1, 2, 3 or 4 was much larger than that in the non-treated group.

O=C(O)c1cc2cc(C(F)(F)F)ccc2s1 [The present compound 1, 5-(trifluoromethyl)benzo[b]thiophene-2-carboxylic acid]
much larger: number of seeds per ear vs non-treated group (Wheat (cultivar: Apogee); spray 1 ppm) | weight of seeds per ear vs non-treated group (Wheat (cultivar: Apogee); spray 1 ppm) | number of seeds per ear vs non-treated group (Wheat (cultivar: Apogee); spray 10 ppm) | weight of seeds per ear vs non-treated group (Wheat (cultivar: Apogee); spray 10 ppm) | green leaf area of plants (visual evaluation) vs non-treated group [1]

Source: patent publication US9232792B2, “Method for promoting plant growth” (SUMITOMO CHEMICAL COMPANY, LIMITED, priority 2011, dated 2016)
